Experimental findings from US7214507B2, “Plant enzymes for bioconversion” (Plant Research International B.V., priority 2001, dated 2007) are described below.

“Also recorded” adds a separate entry of the source.

Data set [1] has as its system (+)-germacrene A hydroxylase. The data set can be described thus: Conversion of sesquiterpenes by a microsomal pellet of chicory in the presence of NADPH. The note with it: for Conversion by the (+)-germacrene A hydroxylase containing microsomal pellet (in words): NADPH, microsomal pellet from chicory roots.
Method: During the whole procedure the plant material was kept on ice as much as possible. After 5 times several seconds of mixing, the slurry was transferred to the cheesecloth with an additional 10 ml of extraction buffer. The cheesecloth was squeezed out and the filtrate was centrifuged (Sigma 2K15) for 20 minutes at 20,000 g and 4° C. The supernatant was poured over a funnel filled with glass wool. […] The resulting microsomal pellets (about 6) were stored under argon at −80° C.
Before incubation, 10 pellets were pottered in 30 mL of assay buffer consisting of 25 mM Tris pH 7.5), 2 mM DTT, 1 mM ascorbic acid, 5 μM FAD, 5 μM FMN and 10% (v/v) glycerol. The enzyme suspension was divided in 1 mL aliquots and incubated with 5 μL substrate solution in the presence of a 1 mM NADPH-regenerating system that consisted of 1 mM NADPH, 5 mM glucose-6-phosphate, and 1.2 IU glucose-6-phosphate dehydrogenase (all from Sigma). The initial concentration of substrate in each assay was 45 μM and all were done in duplicate. […] After 60 minutes the incubations were stopped by storing them at −20° C. in a freezer.
The enzyme assays were extracted 2 times with 1 mL 20% (v/v) ether in pentane, after the addition of 5 μM cis-nerolidol (Fluka). The organic phase was filtered through a glasswool-plugged (dimethyl chlorosilane-treated, Chrompack) Pasteur pipette that contained 0.4 gram of silica and a little anhydrous MgSO4. The pipette was rinsed with 1.5 mL ether and the extract was concentrated to approximately 50 μL under a stream of nitrogen.
The subject of the next data set is leucodin biosynthesis. The data set can be described thus: Formation of leucodin from (+)-costunolide by 20,000 g chicory root supernatant. The data set is classed as biochemical, Cichorium intybus L. Here is the method: (§1) Incubations were also done with boiled desalted supernatant and in the absence of NADPH. The experiments were repeated with elema-1,3,11(13)-trien-12-oic acid (FIG. 2, 9) and a mixture of α- and γ-costic acid (14) that might serve as substrate analogues for the germacrene acid (4). After 1 h of incubation at 30° C., the reactions were stored in the freezer.
(§2) The organic phase was filtered through a glass-wool plugged (dimethyl chlorosilane-treated glasswool; Chrompack) Pasteur pipette that contained 0.45 g of silica and a little anhydrous MgSO4. […] Samples of 2 μL were analysed by GC-MS using an injection port temperature of 320° C. to provoke Cope rearrangement of (+)-costunolide (5).
(§3) Incubations as described for the germacrene acid were also done with (+)-costunolide (30 μM) to test whether any further enzymatic conversion of this compound would occur during the incubation of germacrene acid. Parthenolide (20 μM) (FIG. 9, 17) was incubated as well since it might be an intermediate in the formation of guaianolides. […] The effect of established cytochrome P450 inhibitors and CO on the conversion of (+)-costunolide was studied, just as the effect of various pyridine nucleotide cofactors and an argon atmosphere.

Data set [2] concerns (+)-costunolide reductase activity. The data set can be described thus: Formation of 11(S),13-dihydrocostunolide from (+)-costunolide by 20,000 g chicory root supernatant. In kind it is biochemical, Cichorium intybus L. The settings on record: for Reduction of the C11–C13 exocyclic double bond (in words): 20 μM substrate, NADPH. As for the experimental part:
as §1, §2, §3

The next data set concerns the target T1, (+)-costunolide synthase (Cichorium intybus, UniProt G3GBK0).
T1 construct: A cell free extract of chicory roots was prepared from the frozen material; from tissue; host or cells: chicory roots, desalted 20,000 g supernatant
T1 sequence (G3GBK0 1-494): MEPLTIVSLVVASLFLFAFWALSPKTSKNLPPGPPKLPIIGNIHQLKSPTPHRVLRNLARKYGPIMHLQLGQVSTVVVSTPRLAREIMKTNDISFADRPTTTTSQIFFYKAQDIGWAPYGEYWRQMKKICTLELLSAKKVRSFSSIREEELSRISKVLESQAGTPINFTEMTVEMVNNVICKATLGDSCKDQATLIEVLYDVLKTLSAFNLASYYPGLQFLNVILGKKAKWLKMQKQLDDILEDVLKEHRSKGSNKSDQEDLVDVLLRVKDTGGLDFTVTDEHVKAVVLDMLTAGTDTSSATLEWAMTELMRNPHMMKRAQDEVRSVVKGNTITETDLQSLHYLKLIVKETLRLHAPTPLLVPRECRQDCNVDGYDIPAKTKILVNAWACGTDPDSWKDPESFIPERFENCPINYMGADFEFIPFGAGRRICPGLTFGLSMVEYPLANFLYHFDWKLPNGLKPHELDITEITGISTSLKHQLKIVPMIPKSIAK
The data set can be described thus: (+)-Costunolide synthase activity, 20,000 g chicory root supernatant with germacrene acid. The note with it: for Percentage Enzyme Activity ± SD, (+)-costunolide synthase: addition at 1 mM, 100% = sum of dehydrosaussurea lactone, saussurea lactone and leucodin peaks with 1 mM NADPH; for Conversion of substrate analogues by the (+)-costunolide synthase (in words): 20,000 g supernatant, NADPH. In kind it is biochemical, Cichorium intybus L. Here is the method: A cell free extract of chicory roots was prepared from the frozen material in the same way as described for isolation of the germacrene A hydroxylase (Example 1), but MgCl2 was not added to the extraction buffer since the accompanying (+)-germacrene A synthase activity was not essential for the detection of (+)-costunolide synthase activity. […] DTT was omitted from the assay buffer, because SH-groups present in DTT might undergo an “Michael-type addition” to the C11–C13 exocyclic double bond of (+)-costunolide Kupchan et al., 1970). […] Incubations were also done with boiled desalted supernatant and in the absence of NADPH. The experiments were repeated with elema-1,3,11(13)-trien-12-oic acid (FIG. 2, 9) and a mixture of α- and γ-costic acid (14) that might serve as substrate analogues for the germacrene acid (4). After 1 h of incubation at 30° C., the reactions were stored in the freezer.
The organic phase was filtered through a glass-wool plugged (dimethyl chlorosilane-treated glasswool; Chrompack) Pasteur pipette that contained 0.45 g of silica and a little anhydrous MgSO4. […] Samples of 2 μL were analysed by GC-MS using an injection port temperature of 320° C. to provoke Cope rearrangement of (+)-costunolide (5). Mass spectra were recorded at 70 eV scanning from 35 to 300 atomic mass units; the GC oven temperature was programmed as described before (de Kraker et al., 1998).
To determine whether the formation of (+)-costunolide (5) from germacrene acid (4) was catalysed by a cytochrome P450-enzyme, the effect of various established cytochrome P450-inhibitors (cytochrome C, metyrapone, clotrimazole, micozanole, and amino-benzotriazole) on this reaction were tested, as well as the effect of CO or an argon atmosphere. The cofactor dependence was also investigated, i.e. NAD(P)^+ or NADH was added instead of NADPH. Experiments were carried out in a similar manner as described for the germacrene A hydroxylase in Example I using a 20,000 g supernatant and 5 μL of 0.2 mM cis-nerolidol as internal standard. Blue-light reversal of CO-inhibition was investigated with gas-mixtures of 10% O2 plus 90% N2 (blank) and 10% O2 plus 90% CO.

For data set [3], the system named is (+)-germacrene A hydroxylase. The data set can be described thus: Effect of the used solvent for (+)-γ-gurjunene on enzyme activity. The note with it: peak height of γ-gurjunene alcohol relative to the internal standard (5 nmol cis-nerolidol); 5 μL of 10 mM γ-gurjunene in the solvent. In kind it is biochemical, Cichorium intybus L. Here is the method: Before experiments as described in this example were started, it was tested which organic solvent could be best used to dissolve the substrate. […] Karp et al., 1990).

The mark [4] stands for this setting: inhibitor 100 μM, control = 100%.
Where [5] appears, read: inhibitor 10 μM, DMSO (1%) control = 100%.
Setting [6] is: pyridine nucleotide cofactor 1 mM, substrate (+)-costunolide.
Where [7] appears, read: atmosphere: 80% CO + 20% O2 or argon, air = 100%.

For (−)-limonene, the “Conversion by the (+)-germacrene A hydroxylase containing microsomal pellet (in words)” value in data set [1] is reported as “Some conversion”.

For the molecule `CC(C)(C(=O)c1cccnc1)c1cccnc1` [metyrapone], the “Percentage Enzyme Activity ± SD, Leucodin (22)” value with leucodin biosynthesis (setting [4]) is recorded as 70 ± 16%. In addition, the “Percentage Enzyme Activity ± SD, Dihydrocostunolide (20)” value (shortened to “Percentage Enzyme Activity ± SD … (20)”) in data set [2] (setting [4]) was 87 ± 11%. The “Reduction of the amount of measurable enzymatic products of germacrene acid” value (from here on “Reduction of the amount … of germacrene acid”) at (+)-costunolide synthase (inhibitor 1 mM) is 78%.

On to `Nn1nnc2ccccc21` [aminobenzotriazole], for which, in the data set with leucodin biosynthesis (setting [5]), the “Percentage Enzyme Activity ± SD, Leucodin (22)” value came out at 86 ± 33%. Also, the “Percentage Enzyme Activity ± SD … (20)” value in data set [2] (setting [5]) is 75 ± 8%. Besides, the “Reduction of the amount … of germacrene acid” value on (+)-costunolide synthase (inhibitor 100 μM) was determined as 44%.

On to `CCO` [ethanol], for which the “Enzyme activity ± SD” value in data set [3] was determined as 1.87 ± 0.01.

Take `C=C1CC[C@H]2C(=C)CC[C@H]3C(=C)C(=O)O[C@@H]3[C@@H]12` [dehydrocostus lactone]: the “Reduction of the C11–C13 exocyclic double bond (in words)” value in data set [2] is given as “not capable of doing the same”; in data set [2] (listed as dehydrocostuslacton), “not reduced”.

On to `NC(=O)C1=CN([C@@H]2O[C@H](COP(=O)(O)OP(=O)(O)OC[C@H]3O[C@@H](n4cnc5c(N)ncnc54)[C@H](OP(=O)(O)O)[C@@H]3O)[C@@H](O)[C@H]2O)C=CC1` [NADPH], for which the “Percentage Enzyme Activity ± SD, Leucodin (22)” value with leucodin biosynthesis (setting [6]) is “^a100 ± 10 ^ %”. For the same molecule, the “Percentage Enzyme Activity ± SD … (20)” value in data set [2] (setting [6]) is given as “^a100 ± 3 ^ %”. Moreover, the “Percentage Enzyme Activity ± SD, (+)-costunolide synthase” value at (+)-costunolide synthase is 100 ± 8%.

With `Clc1ccc(COC(Cn2ccnc2)c2ccc(Cl)cc2Cl)c(Cl)c1` (centres unmarked) [miconazole], in the data set with leucodin biosynthesis (setting [5]), the “Percentage Enzyme Activity ± SD, Leucodin (22)” value came to 0 ± 0%. In addition, the “Percentage Enzyme Activity ± SD … (20)” value in data set [2] (setting [5]) is 100 ± 5%. The “Reduction of the amount … of germacrene acid” value on (+)-costunolide synthase (inhibitor 100 μM) is listed as 71%.

In the case of `NC(=O)C1=CN([C@@H]2O[C@H](COP(=O)(O)OP(=O)(O)OC[C@H]3O[C@@H](n4cnc5c(N)ncnc54)[C@H](O)[C@@H]3O)[C@@H](O)[C@H]2O)C=CC1` [NADH], in the data set with leucodin biosynthesis (setting [6]), the “Percentage Enzyme Activity ± SD, Leucodin (22)” value is 0 ± 0%. Further, the “Percentage Enzyme Activity ± SD … (20)” value in data set [2] (setting [6]) stood at 14 ± 2%. Moreover, the “Percentage Enzyme Activity ± SD, (+)-costunolide synthase” value at (+)-costunolide synthase came to 7 ± 2%.

As for `C=C(C)[C@@H]1CC[C@@]2(C)CCC[C@](C)(O)[C@@H]2C1` [neointermedeol], the “Less efficiently hydroxylated than β-selinene” value in data set [1] is listed as 15 fold.

Consider `C=C(C)[C@H]1C/C=C(\C)CC/C=C(\C)CC1` [(+)-germacrene A], for which the “Subsequent oxidations into germacrene aldehyde and acid, share of the produced germacrene alcohol” value in data set [1] (microsomal pellet, pH 7.5, NADPH-regenerating system) is “approx. 15%”.

For `[Ar]` [argon], in the data set with leucodin biosynthesis (setting [7]), the “Percentage Enzyme Activity ± SD, Leucodin (22)” value was found to be 0 ± 0%. In data set [2] (setting [7]), the “Percentage Enzyme Activity ± SD … (20)” value is on record as 134 ± 6%. Further, the “Percentage Enzyme Activity ± SD, (+)-costunolide synthase, argon atmosphere” value at (+)-costunolide synthase (1 mM NADPH + argon atmosphere) stood at 0 ± 0%.

For `C=C(C)[C@@H]1CC[C@@]2(C)CCCC(=C)[C@@H]2C1` [(+)-β-selinene], the “Share of the added substrate that was hydroxylated” value in data set [1] (50 nmol added) is “Approximately 30%”.

For `C=C(C)[C@H]1CC=C(C)CC1` [limonene], the “Conversion by the (+)-germacrene A hydroxylase containing microsomal pellet (in words)” value in data set [1] is listed as “hardly converted; also recorded: did hardly occur”.

With `CC1=CC[C@@]23[C@@H]([C@@H]12)[C@H](C(C)C)CC[C@H]3C` [(−)-(α)-Cubebene], the “Conversion by the (+)-germacrene A hydroxylase containing microsomal pellet (in words)” value in data set [1] was “not converted”.

On to `CCCCC` [pentane], for which the “Enzyme activity ± SD” value in data set [3] was determined as 0.47 ± 0.07.

Turning to `C[S+](C)[O-]` [DMSO], the “Enzyme activity ± SD” value in data set [3] came to 1.80 ± 0.09.

On to `CCCCCC` [hexane], for which the “Enzyme activity ± SD” value in data set [3] is reported as below 0.1.

Take `C=C(C)C1CC=C(C)CC1` (single isomer, unassigned; (+)) [(+)-limonene]: the “Conversion by the (+)-germacrene A hydroxylase containing microsomal pellet (in words)” value in data set [1] is recorded as “Some conversion”.

For `CC(C)=C1C/C=C(\C)CC/C=C(\C)CC1=O` [germacrone], the “Conversion by the (+)-germacrene A hydroxylase containing microsomal pellet (in words)” value in data set [1] is reported as “not converted; also recorded: not accepted as a substrate; also recorded: not hydroxylated”.

In the case of (−)-(α)-gurjunene, the “Conversion by the (+)-germacrene A hydroxylase containing microsomal pellet (in words)” value in data set [1] is given as “not converted”.

In the case of `C=CC1(C)CCC(C(=C)C(=O)O)CC1C(=C)C` (centres unmarked) [elema-1,3,11(13)-trien-12-oic acid], at (+)-costunolide synthase, the “Conversion of substrate analogues by the (+)-costunolide synthase (in words)” value (shortened to “Conversion of substrate analogues”) is reported as “no detectable conversion; also recorded: not capable of converting”.

Turning to `C=C(C(=O)O)[C@@H]1CC[C@@]2(C)CCC=C(C)[C@@H]2C1` [α-costic acid], at (+)-costunolide synthase, the “Conversion of substrate analogues” value is on record as “not capable of converting”.

Regarding `C=C(C(=O)O)[C@@H]1CC[C@@]2(C)CCCC(C)=C2C1` [γ-costic acid], the “Conversion of substrate analogues” value at (+)-costunolide synthase is given as “not converted either”.

Regarding “cytochrome C: established cytochrome P450 inhibitor”, the “Percentage Enzyme Activity ± SD, Leucodin (22)” value with leucodin biosynthesis (setting [4]) was 0 ± 0%. The “Percentage Enzyme Activity ± SD … (20)” value in data set [2] (setting [4]) is on record as 105 ± 5%. Moreover, in the data set with (+)-costunolide synthase (inhibitor 100 μM), the “Reduction of the amount … of germacrene acid” value is given as “no enzymatic products of germacrene acid (4) were measured”.

On to `CC(C)O` [iso-propanol], for which the “Enzyme activity ± SD” value in data set [3] amounted to 1.76 ± 0.16.

With `[C-]#[O+]` [CO], the “Formation of leucodin from (+)-costunolide, effect of inhibitors (in words)” value in the data set on leucodin biosynthesis is listed as “strongly inhibited”. For the same molecule, in the data set with leucodin biosynthesis (setting [7]), the “Percentage Enzyme Activity ± SD, Leucodin (22)” value was determined as 8 ± 1%. Besides, the “Percentage Enzyme Activity ± SD … (20)” value in data set [2] (setting [7]) is 140 ± 4%. In addition, the “Effect on the produced sum of (+)-costunolide, 11(S),13-dihydrocostunolide and leucodin (in words)” value on (+)-costunolide synthase (90% CO + 10% O2, blue light 450 nm) is “inhibitory effect”.

As for `Clc1ccccc1C(c1ccccc1)(c1ccccc1)n1ccnc1` [clotrimazole], the “Percentage Enzyme Activity ± SD, Leucodin (22)” value in the data set on leucodin biosynthesis (setting [5]) stood at 0 ± 0%. In data set [2] (setting [5]), the “Percentage Enzyme Activity ± SD … (20)” value is given as 119 ± 9%. Moreover, at (+)-costunolide synthase (inhibitor 100 μM), the “Reduction of the amount … of germacrene acid” value is on record as 97%.
